Assay results from patent US10106534B2 (CELGENE QUANTICEL RESEARCH, INC., priority 2014, dated 2018).

Assays:
JMJD2C = JMJD2C (Homo sapiens (Human), UniProt Q9H3R0); assay: In vitro enzyme inhibition assay for JMJD2C activity (TR-FRET); type: biochemical
Description: This assay determines the ability of a test compound to inhibit JMJD2C demethylase activity. Baculovirus expressed JMJD2C (GenBank Accession #BC143571, AA 2-372) was purchased from BPS Bioscience (Cat#50105).
The ability of test compounds to inhibit the activity of JMJD2C was determined in 384-well plate format under the following reaction conditions: 0.3 nM JMJD2C, 300 nM H3K9me3-biotin labeled peptide (Anaspec cat #64360), 2 μM alpha-ketoglutaric acid in assay buffer of 50 mM HEPES, pH7.3, 0.005% Brij35, 0.5 mM TCEP, 0.2 mg/ml BSA, 50 μM sodium L-ascorbate, and 2 μM ammonium iron(II) sulfate. Reaction product was determined quantitatively by TR-FRET after the addition of detection reagent Phycolink Streptavidin-allophycocyanin (Prozyme) and Europium-anti-di-methylated histone H3 lysine 9 (H3K9me2) antibody (PerkinElmer) in the presence of 5 mM EDTA in LANCE detection buffer (PerkinElmer) at a final concentration of 50 nM and 1 nM, respectively.
The assay reaction was initiated by the following: 2 μl of the mixture of 900 nM H3K9me3-biotin labeled peptide and 6 μM alpha-ketoglutaric acid with 2 μl of 11-point serial diluted inhibitor in 3% DMSO were added to each well of the plate, followed by the addition of 2 μl of 0.9 nM JMJD2C to initiate the reaction. The reaction mixture was incubated at room temperature for 30 minutes, and terminated by the addition of 6 μl of 5 mM EDTA in LANCE detection buffer containing 100 nM Phycolink Streptavidin-allophycocyanin and 2 nM Europium-anti-H3K9me2 antibody. Plates were read by EnVisionMultilabel Reader in TR-FRET mode (excitation at 320 nm, emission at 615 nm and 665 nm) after 1 hour incubation at room temperature. A ratio was calculated (665/615) for each well and fitted to determine inhibition constant (IC50).

[1] = test system: KYSE-150 esophageal carcinoma cell line; assay: In vitro cell-based assay: cellular proliferation via BrdU incorporation (ELISA); set-up: species or system human; conditions: KYSE-150, 168 hours compound incubation
Description: The primary cellular assay for JMJD2C inhibition is an assay which measures cellular proliferation via Bromodeoxyuridine (BrdU) incorporation after 168 hours of compound incubation. Cell lines tested include the JMJD2C gene amplified cell line KYSE-150. This is a quantitative ELISA assay measuring DNA incorporation of BrdU during S-phase as a direct readout of cellular proliferation.
Assay Principle: This is a colorimetric immunoassay for the quantification of cell proliferation. Cells treated for 168 hours with test compounds are assayed for their ability to go through S-phase as a measure of their proliferative potential.
Assay Method: The human KYSE-150 (SMAD4 mut, TP53 mut) esophageal carcinoma cell line was seeded at 2,000 cells/well on a 96-well tissue culture treated plate. After an overnight incubation, cells were treated with compound in an 11-point dilution series with final concentrations ranging from 100 μM to 2 nM. Cells were then incubated in the presence of compound for 168 hours. After compound incubation the cells were assayed using a BrdU Cell Proliferation ELISA (Roche). The cells were first incubated with BrdU labeling reagent for 2 hours. After 2 hours, the BrdU incorporated cells were fixed and denatured, probed with an anti-BrdU-Peroxidase antibody for 1.5 hours and washed. Finally, a tetramethylbenzidine peroxidase substrate was added to each well for 15 minutes followed by a H2SO4 stop solution. The plate was read at 450 nm, and the raw optical density data was transferred into XLFit (IDBS) for IC50 calculation using the formula: fit=(D+((Vmax*(x^n))/((x^n)+(Km^n))))

JMJD2C, sequence (Q9H3R0 2-372): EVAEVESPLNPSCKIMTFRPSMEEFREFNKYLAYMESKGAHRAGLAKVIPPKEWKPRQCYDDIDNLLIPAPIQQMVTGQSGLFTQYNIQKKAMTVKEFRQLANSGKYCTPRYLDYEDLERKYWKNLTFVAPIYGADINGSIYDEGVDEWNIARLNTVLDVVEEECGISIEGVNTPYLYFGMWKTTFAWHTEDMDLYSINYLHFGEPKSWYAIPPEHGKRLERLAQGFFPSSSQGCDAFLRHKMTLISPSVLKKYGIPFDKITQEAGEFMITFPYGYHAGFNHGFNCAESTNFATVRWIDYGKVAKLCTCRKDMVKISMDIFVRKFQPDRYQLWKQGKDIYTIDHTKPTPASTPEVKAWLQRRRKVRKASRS

| IC50 (JMJD2C) [µM] | IC50 ([1]; Homo sapiens) [µM] | Compound | IC50 [1] [µM] |
| --- | --- | --- | --- |
| 1 to 10 | ≤ 0.1 | CN(c1ccc(C2CCOCC2)cc1)c1ccc2c(c1)CCC[C@H]2CNc1cnccc1C(=O)O [Example 175, 3-({[(1R)-6-{methyl[4-(oxan-4-yl)phenyl]amino}-1,2,3,4-tetrahydronaphthalen-1-yl]methyl}amino)pyridine-4-carboxylic acid] |  |
| 0.1 to 1 | ≤ 0.1 | Cc1cc(F)ccc1Oc1ccc2c(c1)CCC[C@H]2CNc1cnccc1C(=O)O [Example 64, 3-({[(1R)-6-(4-fluoro-2-methylphenoxy)-1,2,3,4-tetrahydronaphthalen-1-yl]methyl}amino)pyridine-4-carboxylic acid] |  |
| 0.1 to 1 | > 10 | O=C(O)c1ccncc1NCC1CCOc2cc(Br)ccc21 (stereo not drawn) [Example 14, 3-{[(7-bromo-3,4-dihydro-2H-1-benzopyran-4-yl)methyl]amino}pyridine-4-carboxylic acid] |  |
| 0.1 to 1 | ≤ 0.1 | COc1ccc(N(C)c2ccc3c(c2)CCC[C@H]3CNc2cnccc2C(=O)O)cc1 [Example 177, 3-({[(1R)-6-[(4-methoxyphenyl)(methyl)amino]-1,2,3,4-tetrahydronaphthalen-1-yl]methyl}amino)pyridine-4-carboxylic acid] |  |
| 1 to 10 | 0.1 to 1 | O=C(O)c1ccncc1NCC1CCCc2cc(N3CCCc4ccccc43)ccc21 (stereo not drawn) [Example 4, 3-({[6-(1,2,3,4-tetrahydroquinolin-1-yl)-1,2,3,4-tetrahydronaphthalen-1-yl]methyl}amino)pyridine-4-carboxylic acid] |  |
| 0.1 to 1 | ≤ 0.1 | CN(c1ccc(N2CCCC2)cc1)c1ccc2c(c1)CCC[C@H]2CNc1cnccc1C(=O)O [Example 167, 3-({[(1R)-6-{methyl[4-(pyrrolidin-1-yl)phenyl]amino}-1,2,3,4-tetrahydronaphthalen-1-yl]methyl}amino)pyridine-4-carboxylic acid] |  |
| 0.1 to 1 | 0.1 to 1 | CN(c1ccc2c(c1)CCC[C@H]2CNc1cnccc1C(=O)O)c1ccn(C)n1 [Example 125, 3-({[(1R)-6-[methyl(1-methyl-1H-pyrazol-3-yl)amino]-1,2,3,4-tetrahydronaphthalen-1-yl]methyl}amino)pyridine-4-carboxylic acid] |  |
| 0.1 to 1 | ≤ 0.1 | CN(c1ccc2c(c1)COC2)c1ccc2c(c1)CCC[C@H]2CNc1cnccc1C(=O)O [Example 132, 3-({[(1R)-6-[(1,3-dihydro-2-benzofuran-5-yl)(methyl)amino]-1,2,3,4-tetrahydronaphthalen-1-yl]methyl}amino)pyridine-4-carboxylic acid] |  |
| 0.1 to 1 | ≤ 0.1 | CN(c1ccc(OCC(F)(F)F)cc1)c1ccc2c(c1)OCC[C@H]2CNc1cnccc1C(=O)O [Example 214, 3-({[(4R)-7-{methyl[4-(2,2,2-trifluoroethoxy)phenyl]amino}-3,4-dihydro-2H-1-benzopyran-4-yl]methyl}amino)pyridine-4-carboxylic acid] |  |
| 0.1 to 1 | > 10 | O=C(O)c1ccncc1NCC1OCCc2ccccc21 (stereo not drawn) [Example 142, 3-[(3,4-dihydro-1H-2-benzopyran-1-ylmethyl)amino]pyridine-4-carboxylic acid] |  |
| ≤ 0.1 | > 10 | CN1CC=C(c2ccc(N(C)c3ccc4c(c3)OCC[C@H]4CNc3cnccc3C(=O)O)cc2)CC1 [Example 204, 3-({[(4R)-7-{methyl[4-(1-methyl-1,2,3,6-tetrahydropyridin-4-yl)phenyl]amino}-3,4-dihydro-2H-1-benzopyran-4-yl]methyl}amino)pyridine-4-carboxylic acid] |  |
| 0.1 to 1 | 1 to 10 | CCc1ccc2c(c1)CCC[C@H]2CNc1cnccc1C(=O)O [Example 91, 3-({[(1R)-6-ethyl-1,2,3,4-tetrahydronaphthalen-1-yl]methyl}amino)pyridine-4-carboxylic acid] |  |
| 0.1 to 1 | ≤ 0.1 | Cc1cccc(N(C)c2ccc3c(c2)OCC[C@H]3CNc2cnccc2C(=O)O)c1 [Example 105, 3-({[(4R)-7-[methyl(3-methylphenyl)amino]-3,4-dihydro-2H-1-benzopyran-4-yl]methyl}amino)pyridine-4-carboxylic acid] |  |
| 0.1 to 1 | 1 to 10 | O=C(O)c1ccncc1NC[C@@H]1CCOc2cc(Oc3ccccc3)ccc21 [Example 48, 3-({[(4R)-7-phenoxy-3,4-dihydro-2H-1-benzopyran-4-yl]methyl}amino)pyridine-4-carboxylic acid] |  |
| 0.1 to 1 | 0.1 to 1 | CN(c1cc(F)cc(F)c1)c1ccc2c(c1)OCC[C@H]2CNc1cnccc1C(=O)O [Example 109, 3-({[(4R)-7-[(3,5-difluorophenyl)(methyl)amino]-3,4-dihydro-2H-1-benzopyran-4-yl]methyl}amino)pyridine-4-carboxylic acid] |  |
| 0.1 to 1 | > 10 | Cc1ccc(S(=O)(=O)c2ccc3c(c2)CCC[C@H]3CNc2cnccc2C(=O)O)cc1 [Example 84, 3-({[(1R)-6-(4-methylbenzenesulfonyl)-1,2,3,4-tetrahydronaphthalen-1-yl]methyl}amino)pyridine-4-carboxylic acid] |  |
| 0.1 to 1 | 1 to 10 | O=C(O)c1ccncc1NCC1CCOc2cc(Sc3cccs3)ccc21 (stereo not drawn) [Example 49, 3-({[7-(thiophen-2-ylsulfanyl)-3,4-dihydro-2H-1-benzopyran-4-yl]methyl}amino)pyridine-4-carboxylic acid] |  |
| 1 to 10 | ≤ 0.1 | Cc1ccc(Sc2ccc3c(c2)CCC[C@H]3CNc2cnccc2C(=O)O)cc1 [Example 79, 3-({[(1R)-6-[(4-methylphenyl)sulfanyl]-1,2,3,4-tetrahydronaphthalen-1-yl]methyl}amino)pyridine-4-carboxylic acid] |  |
| 0.1 to 1 | 0.1 to 1 | Cc1cccc(N(C)c2ccc3c(c2)OCC[C@H]3CNc2cnccc2C(=O)O)n1 [Example 148, 3-({[(4R)-7-[methyl(6-methylpyridin-2-yl)amino]-3,4-dihydro-2H-1-benzopyran-4-yl]methyl}amino)pyridine-4-carboxylic acid] |  |
| ≤ 0.1 | > 10 | CN1CCC(c2ccc(N(C)c3ccc4c(c3)OCC[C@H]4CNc3cnccc3C(=O)O)cc2)CC1 [Example 205, 3-({[(4R)-7-{methyl[4-(1-methylpiperidin-4-yl)phenyl]amino}-3,4-dihydro-2H-1-benzopyran-4-yl]methyl}amino)pyridine-4-carboxylic acid] |  |
| 0.1 to 1 | ≤ 0.1 | COc1cccc(N(C)c2ccc3c(c2)CCC[C@H]3CNc2cnccc2C(=O)O)n1 [Example 121, 3-({[(1R)-6-[(6-methoxypyridin-2-yl)(methyl)amino]-1,2,3,4-tetrahydronaphthalen-1-yl]methyl}amino)pyridine-4-carboxylic acid] |  |
| 0.1 to 1 | 1 to 10 | COc1cc2c(cc1F)[C@H](CNc1cnccc1C(=O)O)CCC2 [Example 97, 3-({[(1R)-7-fluoro-6-methoxy-1,2,3,4-tetrahydronaphthalen-1-yl]methyl}amino)pyridine-4-carboxylic acid] |  |
| 0.1 to 1 | 0.1 to 1 | CN(c1ccc(CCO)cc1)c1ccc2c(c1)OCC[C@H]2CNc1cnccc1C(=O)O [Example 207, 3-({[(4R)-7-{[4-(2-hydroxyethyl)phenyl](methyl)amino}-3,4-dihydro-2H-1-benzopyran-4-yl]methyl}amino)pyridine-4-carboxylic acid] |  |

| Compound | IC50 (JMJD2C) [µM] | IC50 ([1]; Homo sapiens) [µM] | IC50 [1] [µM] |
| --- | --- | --- | --- |
| 3-({[(1R)-6-[methyl(2-methyl-1,3-thiazol-4-yl)amino]-1,2,3,4-tetrahydronaphthalen-1-yl]methyl}amino)pyridine-4-carboxylic acid [Example 139] | 0.1 to 1 |  | ≤ 0.1 |
